Experimental data reported in patent US20260152691A1, “METHOD AND COMPOUNDS FOR TREATING OR PREVENTING AUTOIMMUNE DISORDERS OR IMMUNE RESPONSES MODULATED BY THE EXPRESSION OF IDO1” (The Trustees of Princeton University, priority 2019, published 2026).

Assays:
[1] = biological target: hemoglobin (Homo sapiens, UniProt P68871+P69905); test: Heme protein selectivity by stopped-flow UV-vis spectrometry, hemoglobin; assay type: biochemical; details: pseudo-first-order conditions
Method: (§1) Since hydrogen sulfide and polysulfides are known to react with other heme proteins, the selectivity of 3 MI for IDO1 was examined by mixing the substituted indole compounds (such as 3 MI) with several other heme proteins and observing their reactions using stopped-flow UV-vis spectrometry.
(§2) The substituted indole compounds had no effect on catalase even at 250 µM, whereas the substituted indole compounds did appear to reduce myoglobin and hemoglobin, producing their oxygen-bound forms. The substituted indole compound was also able to reduce ferric cytochrome c to its distinctive ferrous form. The second-order rate constants of these reactions were determined under pseudo-first-order conditions giving 6.6×10^3, 1.6×10^4, and 2.7×10^5 M^−1 s^−1 for myoglobin, hemoglobin, and cytochrome c, respectively. […] Unlike myoglobin and hemoglobin, the oxy-form of IDO1 was not observed due to the relatively slow reduction of IDO1 by 3 MI.

[2] = biological target: ferric cytochrome c (Homo sapiens, UniProt P99999); test: Heme protein selectivity by stopped-flow UV-vis spectrometry, cytochrome c; assay type: biochemical; details: pseudo-first-order conditions
Chain of ferric cytochrome c (P99999 whole entry): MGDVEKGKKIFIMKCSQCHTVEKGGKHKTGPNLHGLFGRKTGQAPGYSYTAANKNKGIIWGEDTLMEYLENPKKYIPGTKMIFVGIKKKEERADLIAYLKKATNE
Method: as §1, §2

[3] = biological target: IDO1 (Homo sapiens, UniProt P14902); test: IDO1 activity assay, N-formylkynurenine absorbance at 321 nm; assay type: biochemical
Chain of IDO1 (P14902 whole entry): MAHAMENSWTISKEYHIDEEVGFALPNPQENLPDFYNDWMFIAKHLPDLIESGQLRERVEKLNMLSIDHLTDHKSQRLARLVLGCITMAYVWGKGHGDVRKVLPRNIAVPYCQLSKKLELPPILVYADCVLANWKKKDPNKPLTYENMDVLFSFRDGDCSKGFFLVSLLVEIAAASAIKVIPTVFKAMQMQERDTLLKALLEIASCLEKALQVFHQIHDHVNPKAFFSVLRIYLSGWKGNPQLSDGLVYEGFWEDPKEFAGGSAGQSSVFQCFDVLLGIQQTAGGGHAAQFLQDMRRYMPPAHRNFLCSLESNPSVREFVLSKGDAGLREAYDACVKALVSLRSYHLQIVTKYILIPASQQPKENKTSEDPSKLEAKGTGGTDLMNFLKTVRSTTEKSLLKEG
Method: FIG. 2 is a graph showing the activity of IDO1 (500 nM) (204) with L-tryptophan (200 μM) as substrate glutathione alone (203), and also when activated by 3 MI (500 nM) with glutathione (5 mM) (201), and by 3 MI (500 nM) without glutathione (202).
FIG. 6 reflects a system involving IDO1 (50 nM), 0.1 mM L-tryptophan, and 5 mM glutathione in 100 mM sodium phosphate, pH 7.0 with <1 μM 6-chloro-5-fluoro-1H-indole-3-thiol.
The activity of the compounds was determined as follows. UV-vis spectra were recorded using a Hewlett-Packer 8453 diode array spectrophotometer. Activity assays were done at room temperature using 100 mM sodium phosphate, pH 7.0, with 500 nM IDO1 (ε404nm=172 mM^−1 cm^−1) and 50 μM L-tryptophan. These were initiated by addition of IDO1, and activity was monitored at 321 nm where product N-formylkynurenine absorbs (ε321nm=3750 M^−1 cm^−1).
The substituted indole compound was prepared daily in a 100 mM stock solution in dimethyl sulfoxide (DMSO), and this was serially diluted to maintain a consistent final concentration of 1% (v/v) DMSO in each assay. To maintain activity, 5 mM reduced glutathione was added to some of these from a 0.5 M stock solution. The substituted indole compound was generally tested from 100 nM to 10 μM. The ability of each compound to serve as a reducing substrate for IDO1 was fit using a Michaelis-Menten equation. […] Above 5 μM 3 MI, there was a steep inhibitory effect.

[4] = biological target: ferric-superoxo IDO1 (Homo sapiens, UniProt P14902); test: Double-mixing stopped-flow spectrometry, reaction with ferric-superoxo IDO1; assay type: biochemical; details: 3 MI kept reduced with 5 mM glutathione; estimated, double exponential fit
Chain of ferric-superoxo IDO1 (P14902 whole entry): as above
Method: The nature of substituted indole compound-inhibition at high concentrations (>5 μM) was examined further with ferric-superoxo IDO1, the active tryptophan-oxidizing species. Ferric-superoxo IDO1 was generated using double-mixing stopped-flow spectrometry by mixing IDO1 prereduced with 2 mM sodium dithionite into aerobic buffer for 0.5 s. This ferric superoxo species was then mixed in the second push with 3 MI that had been maintained in the reduced state using 5 mM glutathione. 3 MI readily reacted with ferric-superoxo IDO1 to form ferric IDO1 without any observable intermediates. This was shown by a fast shift from the ferric-superoxo complex (Amax 415 nm) to the ferric (Amax 404 nm) that was completed nearly within the mixing time of the instrument (<10 ms) even at the lowest concentration of 3 MI useful for pseudo-first-order reaction conditions (where 3 MI must be at a large excess over IDO1). Following this fast conversion to ferric IDO1, there was a slower shift to the ferric 3 MI-bound complex as indicated by the Soret shifting to 424 nm (as in FIG. 4). To account for both reactions, these traces were fit using a double exponential expression.

[5] = biological target: ferric IDO1 (Homo sapiens, UniProt P14902); test: Stopped-flow UV-vis spectrometry of binding to ferric IDO1
Chain of ferric IDO1 (P14902 whole entry): as above
Method: FIG. 3 is a graph showing the second-order rate constant of 3 MI binding to ferric IDO1 determined by stopped-flow spectrometry.
FIG. 4 is a graph showing stopped-flow UV-vis spectrometry of 3 MI (30 μM) binding to IDO1 (1.4 μM) over 0.2 s.
3-Mercaptoindole (3 MI) was seen to bind to IDO1 with a fast on-rate of 1.7×10^6 M^−1 s^−1 under pseudo-first-order conditions (See FIG. 3), producing a UV-vis spectrum (see FIG. 4) that has a Soret at 424 nm, a lower peak at 321 nm, and broad q-bands at 537 nm and a shoulder at about 575 nm. […] Note that although 3 MI is referred to here, similar results can be seen with other substituted indole compounds disclosed herein.

[6] = biological target: T1, myoglobin (Homo sapiens, UniProt P02144); test: Heme protein selectivity by stopped-flow UV-vis spectrometry, myoglobin; assay type: biochemical; details: pseudo-first-order conditions
T1 sequence (P02144 1-154): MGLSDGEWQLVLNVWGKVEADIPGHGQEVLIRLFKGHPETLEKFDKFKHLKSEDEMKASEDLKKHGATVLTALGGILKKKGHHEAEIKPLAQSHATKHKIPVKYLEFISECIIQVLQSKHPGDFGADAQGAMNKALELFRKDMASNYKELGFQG
Method: as §1, §2

Chain of hemoglobin (P69905 2-142 limits assumed): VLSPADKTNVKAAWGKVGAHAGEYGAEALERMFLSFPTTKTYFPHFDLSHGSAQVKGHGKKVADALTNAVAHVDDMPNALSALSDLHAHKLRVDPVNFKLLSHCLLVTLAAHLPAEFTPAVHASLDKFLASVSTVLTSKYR
Chain of hemoglobin (P68871 2-147 limits assumed): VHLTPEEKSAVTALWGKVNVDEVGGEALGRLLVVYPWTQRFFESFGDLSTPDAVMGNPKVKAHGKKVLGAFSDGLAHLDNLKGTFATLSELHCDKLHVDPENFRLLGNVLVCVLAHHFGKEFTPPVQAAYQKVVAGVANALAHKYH

Sc1c[nH]c2ccccc12 [3 MI, 3-Mercaptoindole]
second-order rate constant of reduction of hemoglobin [1]: 16000 M⁻¹ s⁻¹ | second-order rate constant of reduction of cytochrome c [2]: 270000 M⁻¹ s⁻¹ | concentration above which there was a steep inhibitory effect [3]: Above 5 μM | Km ([3]; 500 nM IDO1, 50 μM L-tryptophan, 100 mM sodium phosphate pH 7.0, room temperature, Michaelis-Menten fit, read-out: Km of activation): 2.2 ± 0.7 µM | IDO1 activity with reduced glutathione added ([3]; 5 mM reduced glutathione (FIG. 2, 201)): sustained 3 MI-induced IDO1 activity | time after which the initial burst of IDO1 activity leveled off ([3]; 3 MI without glutathione (FIG. 2, 202)): 500 s | second-order rate constant of initial reaction with ferric-superoxo IDO1 [4]: > 10^7 M^−1 s^−1 | Kd of binding to IDO1 ([5]; complete conversion to bound IDO1 at micromolar concentrations of 3 MI): submicromolar | second-order rate constant of reduction of myoglobin [6]: 6600 M⁻¹ s⁻¹

Sc1c[nH]c2ccccc12 [3-Mercaptoindole (3 MI)]
on-rate (second-order rate constant) of binding to IDO1 ([5]; pseudo-first-order conditions, stopped-flow): 1.7e+06 M⁻¹ s⁻¹

Fc1cc2c(S)c[nH]c2cc1Cl [6-chloro-5-fluoro-1H-indole-3-thiol]
IDO1 activity, N-formylkynurenine absorbance at 321 nm over time (FIG. 6) ([3]; IDO1 50 nM, 0.1 mM L-tryptophan, 5 mM glutathione, 100 mM sodium phosphate pH 7.0, <1 μM compound, background subtracted): increase in absorbance
